Reference: patent US9067943B2, “[1,2,3]triazolo[4,5-D]pyrimidine derivatives” (priority 2011, dated 2015)
Read-outs that look alike come from different tables or passages of the source.

What was measured:
human CB2 receptors = molecular target: T1, human CB2 receptors (Homo sapiens, UniProt P34972); assay: cAMP assay; type: cell-based
T1 construct: expressed in transfected cells; host or cells: CHO cells
Outline: (§1)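 CHO cells expressing human CB1 or CB2 were preincubated 30 min at 30 °C in Krebs Ringer bicarbonate buffer with 1 mM IBMX, then exposed to compounds for 30 min at 30 °C. cAMP was measured by time-resolved FRET against a cAMP standard curve, and EC50 values were derived.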

human CB1 receptors = molecular target: T2, human CB1 receptors (Homo sapiens, UniProt P21554); assay: cAMP assay; type: cell-based
T2 construct: expressed in transfected cells; host or cells: CHO cells
T2 sequence (P21554 whole entry): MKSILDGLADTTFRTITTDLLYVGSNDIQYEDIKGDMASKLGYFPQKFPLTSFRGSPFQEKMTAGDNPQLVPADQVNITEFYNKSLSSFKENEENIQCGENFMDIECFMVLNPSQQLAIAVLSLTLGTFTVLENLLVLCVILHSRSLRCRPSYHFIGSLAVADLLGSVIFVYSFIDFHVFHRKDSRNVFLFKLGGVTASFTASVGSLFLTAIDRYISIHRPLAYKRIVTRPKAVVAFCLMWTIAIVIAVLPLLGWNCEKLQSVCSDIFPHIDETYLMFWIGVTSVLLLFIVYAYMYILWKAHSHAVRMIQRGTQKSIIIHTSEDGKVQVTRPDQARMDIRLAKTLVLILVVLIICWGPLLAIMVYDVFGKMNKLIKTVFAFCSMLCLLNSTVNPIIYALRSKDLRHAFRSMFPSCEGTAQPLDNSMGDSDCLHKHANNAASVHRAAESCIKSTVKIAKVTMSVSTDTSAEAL
Outline: as §1

[1] = functional cAMP assay, CHO cells expressing human CB2, read-out: human CB2 EC50

T1 sequence (P34972 whole entry): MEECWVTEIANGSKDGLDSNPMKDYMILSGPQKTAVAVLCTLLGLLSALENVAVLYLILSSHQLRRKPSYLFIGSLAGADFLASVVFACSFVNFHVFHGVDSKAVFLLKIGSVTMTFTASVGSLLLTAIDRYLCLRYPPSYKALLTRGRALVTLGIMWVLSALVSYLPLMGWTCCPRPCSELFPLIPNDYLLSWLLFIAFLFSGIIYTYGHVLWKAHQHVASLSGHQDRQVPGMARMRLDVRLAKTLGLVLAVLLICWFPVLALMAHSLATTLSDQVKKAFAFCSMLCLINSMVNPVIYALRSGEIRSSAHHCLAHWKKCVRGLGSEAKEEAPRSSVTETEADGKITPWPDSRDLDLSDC

Row | SMILES | EC50 (human CB2 receptors) | EC50 (human CB1 receptors) | EC50 (human CB2 receptors; [1])
1 | CC(C)(C)c1nc(N2CC[C@H](O)C2)c2nn(Cc3ccccc3C(F)(F)F)nc2n1 [Example 79, (S)-1-[5-tert-Butyl-2-(2-trifluoromethyl-benzyl)-2H-[1,2,3]triazolo[4,5-d]pyrimidin-7-yl]-pyrrolidin-3-ol] | 0.4 nM | > 10 µM | –
2 | CC(C)(C)c1nc(N2CC[C@H](O)C2)c2nn(Cc3ccccc3S(C)(=O)=O)nc2n1 [Example 80, (S)-1-[5-tert-Butyl-2-(2-methanesulfonyl-benzyl)-2H-[1,2,3]triazolo[4,5-d]pyrimidin-7-yl]-pyrrolidin-3-ol] | 10.3 nM | > 10 µM | –
3 | Cc1cc(Cn2nc3nc(C(C)(C)C)nc(N4CCC(F)(F)C4)c3n2)n(C)n1 [Example 81, 5-tert-Butyl-7-(3,3-difluoro-pyrrolidin-1-yl)-2-(2,5-dimethyl-2H-pyrazol-3-ylmethyl)-2H-[1,2,3]triazolo[4,5-d]pyrimidine] | 9.4 nM | > 10 µM | –
4 | Cn1nncc1Cn1nc2nc(C(C)(C)C)nc(N3CCC(F)(F)C3)c2n1 [Example 82, 5-tert-Butyl-7-(3,3-difluoro-pyrrolidin-1-yl)-2-(3-methyl-3H-[1,2,3]triazol-4-ylmethyl)-2H-[1,2,3]triazolo[4,5-d]pyrimidine] | 2.8 nM | > 10 µM | –
5 | Cc1nnc(Cn2nc3nc(C(C)(C)C)nc(N4CCC(F)(F)C4)c3n2)n1C [Example 83, 5-tert-Butyl-7-(3,3-difluoro-pyrrolidin-1-yl)-2-(4,5-dimethyl-4H-[1,2,4]triazol-3-ylmethyl)-2H-[1,2,3]triazolo[4,5-d]pyrimidine] | 6.1 nM | > 10 µM | –
6 | Cc1c(Cn2nc3nc(C(C)(C)C)nc(N4CCC(F)(F)C4)c3n2)ccc[n+]1[O-] [Example 84, 5-tert-Butyl-7-(3,3-difluoro-pyrrolidin-1-yl)-2-(2-methyl-1-oxy-pyridin-3-ylmethyl)-2H-[1,2,3]triazolo[4,5-d]pyrimidine] | 94 nM | > 10 µM | –
7 | CC(C)(C)c1nc(N2CC[C@H](O)C2)c2nn(Cc3nccc(Cl)c3Cl)nc2n1 [Example 85, (S)-1-[5-tert-Butyl-2-(3,4-dichloro-pyridin-2-ylmethyl)-2H-[1,2,3]triazolo[4,5-d]pyrimidin-7-yl]-pyrrolidin-3-ol] | 10.2 nM | > 10 µM | –
8 | Cc1nc(Cn2nc3nc(C(C)(C)C)nc(N4CC[C@H](O)C4)c3n2)no1 [Example 86, (S)-1-[5-tert-Butyl-2-(5-methyl-[1,2,4]oxadiazol-3-ylmethyl)-2H-[1,2,3]triazolo[4,5-d]pyrimidin-7-yl]-pyrrolidin-3-ol] | 52.2 nM | > 10 µM | –
9 | Cc1nnc(Cn2nc3nc(C(C)(C)C)nc(N4CC[C@H](O)C4)c3n2)o1 [Example 87, (S)-1-[5-tert-Butyl-2-(5-methyl-[1,3,4]oxadiazol-2-ylmethyl)-2H-[1,2,3]triazolo[4,5-d]pyrimidin-7-yl]-pyrrolidin-3-ol] | – | > 10 µM | 258 nM
10 | Cn1nnnc1Cn1nc2nc(C(C)(C)C)nc(N3CC[C@H](O)C3)c2n1 [Example 88, (S)-1-[5-tert-Butyl-2-(1-methyl-1H-tetrazol-5-ylmethyl)-2H-[1,2,3]triazolo[4,5-d]pyrimidin-7-yl]-pyrrolidin-3-ol] | 52.1 nM | > 10 µM | –
11 | Cn1ncnc1Cn1nc2nc(C(C)(C)C)nc(N3CC[C@H](O)C3)c2n1 [Example 89, (S)-1-[5-tert-Butyl-2-(2-methyl-2H-[1,2,4]triazol-3-ylmethyl)-2H-[1,2,3]triazolo[4,5-d]pyrimidin-7-yl]-pyrrolidin-3-ol] | – | > 10 µM | 372 nM
12 | Cn1nncc1Cn1nc2nc(C(C)(C)C)nc(N3CC[C@H](O)C3)c2n1 [Example 90, (S)-1-[5-tert-Butyl-2-(3-methyl-3H-[1,2,3]triazol-4-ylmethyl)-2H-[1,2,3]triazolo[4,5-d]pyrimidin-7-yl]-pyrrolidin-3-ol] | 40.7 nM | > 10 µM | –
13 | Cc1cc(Cn2nc3nc(C(C)(C)C)nc(N4CC[C@H](O)C4)c3n2)n(C)n1 [Example 91, (S)-1-[5-tert-Butyl-2-(2,5-dimethyl-2H-pyrazol-3-ylmethyl)-2H-[1,2,3]triazolo[4,5-d]pyrimidin-7-yl]-pyrrolidin-3-ol] | – | > 10 µM | 124 nM
14 | CC(C)(C)c1nc(N2CCC(F)(F)C2)c2nn(Cc3nnnn3C3CC3)nc2n1 [Example 92, 5-tert-Butyl-2-(1-cyclopropyl-1H-tetrazol-5-ylmethyl)-7-(3,3-difluoro-pyrrolidin-1-yl)-2H-[1,2,3]triazolo[4,5-d]pyrimidine] | 5 nM | 1.58 µM | –
15 | CC(C)(C)c1nc(N2CC[C@H](O)C2)c2nn(Cc3cccnc3Nc3ccc([N+](=O)[O-])c4nonc34)nc2n1 [Example 93, (S)-1-{5-tert-Butyl-2-[2-(7-nitro-benzo[1,2,5]oxadiazol-4-ylamino)-pyridin-3-ylmethyl]-2H-[1,2,3]triazolo[4,5-d]pyrimidin-7-yl}-pyrrolidin-3-ol] | – | > 10 µM | 270 nM
16 | CC(C)(C)c1nc(N2CC[C@H](O)C2)c2nn(Cc3nnnn3C3CC3)nc2n1 [Example 94, (S)-1-[5-tert-Butyl-2-(1-cyclopropyl-1H-tetrazol-5-ylmethyl)-2H-[1,2,3]triazolo[4,5-d]pyrimidin-7-yl]-pyrrolidin-3-ol] | – | > 10 µM | 251 nM
17 | Cc1nc(Cn2nc3nc(C(C)(C)C)nc(N4CC[C@H](O)C4)c3n2)n(C)n1 [Example 95, (S)-1-[5-tert-Butyl-2-(2,5-dimethyl-2H-[1,2,4]triazol-3-ylmethyl)-2H-[1,2,3]triazolo[4,5-d]pyrimidin-7-yl]-pyrrolidin-3-ol] | – | > 10 µM | 257 nM
18 | Cc1nc(Cn2nc3nc(C(C)(C)C)nc(N4CCC(F)(F)C4)c3n2)n(C)n1 [Example 96, 5-tert-Butyl-7-(3,3-difluoro-pyrrolidin-1-yl)-2-(2,5-dimethyl-2H-[1,2,4]triazol-3-ylmethyl)-2H-[1,2,3]triazolo[4,5-d]pyrimidine] | 22.6 nM | > 10 µM | –
19 | CC(C)(C)c1nc(N2CC[C@H](O)[C@@H]2CO)c2nn(Cc3nnnn3C3CC3)nc2n1 [Example 97, (2S,3S)-1-[5-tert-Butyl-2-(1-cyclopropyl-1H-tetrazol-5-ylmethyl)-2H-[1,2,3]triazolo[4,5-d]pyrimidin-7-yl]-2-hydroxymethyl-pyrrolidin-3-ol] | – | > 10 µM | 144 nM
20 | Cc1nonc1Cn1nc2nc(C(C)(C)C)nc(N3CC[C@H](O)[C@@H]3CO)c2n1 [Example 98, (2S,3S)-1-[5-tert-Butyl-2-(4-methyl-furazan-3-ylmethyl)-2H-[1,2,3]triazolo[4,5-d]pyrimidin-7-yl]-2-hydroxymethyl-pyrrolidin-3-ol] | – | > 10 µM | 211 nM
21 | Cc1nonc1Cn1nc2nc(C(C)(C)C)nc(N3CC(F)(F)C(F)(F)C3)c2n1 [Example 99, 5-tert-Butyl-2-(4-methyl-furazan-3-ylmethyl)-7-(3,3,4,4-tetrafluoro-pyrrolidin-1-yl)-2H-[1,2,3]triazolo[4,5-d]pyrimidine] | 0.9 nM | > 10 µM | –
22 | Cc1noc(Cn2nc3nc(C(C)(C)C)nc(N4CC(F)(F)C(F)(F)C4)c3n2)n1 [Example 100, 5-tert-Butyl-2-(3-methyl-[1,2,4]oxadiazol-5-ylmethyl)-7-(3,3,4,4-tetrafluoro-pyrrolidin-1-yl)-2H-[1,2,3]triazolo[4,5-d]pyrimidine] | 4.6 nM | > 10 µM | –
23 | Cc1nnc(Cn2nc3nc(C(C)(C)C)nc(N4CC(F)(F)C(F)(F)C4)c3n2)o1 [Example 101, 5-tert-Butyl-2-(5-methyl-[1,3,4]oxadiazol-2-ylmethyl)-7-(3,3,4,4-tetrafluoro-pyrrolidin-1-yl)-2H-[1,2,3]triazolo[4,5-d]pyrimidine] | 15.7 nM | > 10 µM | –
24 | Cn1nnnc1Cn1nc2nc(C(C)(C)C)nc(N3CC(F)(F)C(F)(F)C3)c2n1 [Example 102, 5-tert-Butyl-2-(1-methyl-1H-tetrazol-5-ylmethyl)-7-(3,3,4,4-tetrafluoro-pyrrolidin-1-yl)-2H-[1,2,3]triazolo[4,5-d]pyrimidine] | 6.3 nM | > 10 µM | –
25 | Cc1nnc(Cn2nc3nc(C(C)(C)C)nc(N4CC(F)(F)C(F)(F)C4)c3n2)n1C [Example 103, 5-tert-Butyl-2-(4,5-dimethyl-4H-[1,2,4]triazol-3-ylmethyl)-7-(3,3,4,4-tetrafluoro-pyrrolidin-1-yl)-2H-[1,2,3]triazolo[4,5-d]pyrimidine] | 20.9 nM | > 10 µM | –
26 | Cn1nncc1Cn1nc2nc(C(C)(C)C)nc(N3CC(F)(F)C(F)(F)C3)c2n1 [Example 104, 5-tert-Butyl-2-(3-methyl-3H-[1,2,3]triazol-4-ylmethyl)-7-(3,3,4,4-tetrafluoro-pyrrolidin-1-yl)-2H-[1,2,3]triazolo[4,5-d]pyrimidine] | 10.1 nM | > 10 µM | –
27 | Cc1nnc(Cn2nc3nc(C(C)(C)C)nc(N4CC5(COC5)C4)c3n2)n1C [Example 106, 5-tert-Butyl-2-(4,5-dimethyl-4H-[1,2,4]triazol-3-ylmethyl)-7-(2-oxa-6-aza-spiro[3.3]hept-6-yl)-2H-[1,2,3]triazolo[4,5-d]pyrimidine] | 62.7 nM | > 10 µM | –
28 | CC(C)(C)c1nc(N2CC3(COC3)C2)c2nn(Cc3ccccc3S(C)(=O)=O)nc2n1 [Example 107, 5-tert-Butyl-2-(2-methanesulfonyl-benzyl)-7-(2-oxa-6-aza-spiro[3.3]hept-6-yl)-2H-[1,2,3]triazolo[4,5-d]pyrimidine] | 8.4 nM | > 10 µM | –
29 | CC(C)(C)c1nc(N2CC3(COC3)C2)c2nn(Cc3ncccc3Cl)nc2n1 [Example 108, 5-tert-Butyl-2-(3-chloro-pyridin-2-ylmethyl)-7-(2-oxa-6-aza-spiro[3.3]hept-6-yl)-2H-[1,2,3]triazolo[4,5-d]pyrimidine] | 5.2 nM | 0.362 µM | –
